This test deals with 2G12. In words: BioLayer Interferometry (BLI) of 2G12 binding to surface-immobilized synthetic glycopeptide. Conditions: Table 6; evaluated by BLI, material prepared synthetically. As for the experimental part: Biotinylation of 10F2 glycopeptide and determination of 2G12 binding by BLI (BioLayer Interferometry): 200 μg 10F2 glycopeptide in 5.5 μL water was treated with […] of 50 mM TCEP.HCl/1M Tris-HCl buffer, pH 7.8, under argon, using the same inert gas setup employed in the click procedure. After 4.5 h, the reaction mixture was injected into HPLC (Waters Symmetry, 300 C4, 5 μm, 4.6×250 mm, 1 mL/min, 2-42% over 60 min, retention time 46.8 min).
The 2G12 binding of the resulting biotinylated glycopeptide 3 was determined using a BLItz instrument (Fortebio). Biotin-10F2 was loaded (120 sec) onto a streptavidin biosensor as a 500 nM solution in Buffer 1 (20 mM Tris pH 7.5, 150 mM NaCl, 2 mM MgSO4, 0.20 mg/mL BSA, 0.02% Tween-20). The sensor was washed with Buffer 1 for 60 sec, after which time the net response due to loading was observed as 0.2 nm. The sensor was then equilibrated with Buffer 2 (20 mM Tris pH 7.5, 150 mM NaCl, 2 mM MgSO4, 2.0 mg/mL BSA, 0.1% v/v Tween-20) for 90 sec. 2G12 (prepared in Buffer 2) was associated at several concentrations (0.5, 1, 2, 4, 8, 16, 32 nM, in random order) for 600 sec, followed by dissociation into blank Buffer 2 for 600 sec. […]

Results on 2 molecules are retold here after patent US11345912B2, “Directed evolution of multivalent glycopeptides that tightly bind to target proteins” (Brandeis University, priority 2013, dated 2022).

The structures appear in SMILES notation.

Molecule `CC[C@H](C)[C@H](NC(=O)[C@@H](NC(=O)[C@@H](NC(=O)[C@H](Cc1c[nH]cn1)NC(=O)[C@H](CC(N)=O)NC(=O)[C@H](CC(=O)O)NC(=O)[C@H](CCc1cn(C2CCC(OC3O[C@H](CO[C@H]4O[C@H](CO[C@H]5O[C@H](CO)[C@@H](O)[C@H](O)[C@@H]5O[C@H]5O[C@H](CO)[C@@H](O)[C@H](O)[C@@H]5O)[C@@H](O)[C@H](O[C@H]5O[C@H](CO)[C@@H](O)[C@H](O)[C@@H]5O[C@H]5O[C@H](CO)[C@@H](O)[C@H](O)[C@@H]5O)[C@@H]4O)[C@@H](O)[C@H](O[C@H]4O[C@H](CO)[C@@H](O)[C@H](O)[C@@H]4O[C@H]4O[C@H](CO)[C@@H](O)[C@H](O)[C@@H]4O[C@H]4O[C@H](CO)[C@@H](O)[C@H](O)[C@@H]4O)[C@@H]3O)CC2)nn1)NC(=O)[C@@H](NC(=O)[C@H](CCCCN)NC(=O)[C@H](CCC(=O)O)NC(=O)[C@H](CCCNC(=N)N)NC(=O)[C@H](CCCCN)NC(=O)[C@H](C)NC(=O)[C@H](CC(N)=O)NC(=O)[C@@H](NC(=O)[C@H](CCCCN)NC(=O)[C@@H](NC(=O)[C@H](C)NC(=O)[C@H](CCc1cn(C2CCC(OC3O[C@H](CO[C@H]4O[C@H](CO[C@H]5O[C@H](CO)[C@@H](O)[C@H](O)[C@@H]5O[C@H]5O[C@H](CO)[C@@H](O)[C@H](O)[C@@H]5O)[C@@H](O)[C@H](O[C@H]5O[C@H](CO)[C@@H](O)[C@H](O)[C@@H]5O[C@H]5O[C@H](CO)[C@@H](O)[C@H](O)[C@@H]5O)[C@@H]4O)[C@@H](O)[C@H](O[C@H]4O[C@H](CO)[C@@H](O)[C@H](O)[C@@H]4O[C@H]4O[C@H](CO)[C@@H](O)[C@H](O)[C@@H]4O[C@H]4O[C@H](CO)[C@@H](O)[C@H](O)[C@@H]4O)[C@@H]3O)CC2)nn1)NC=O)[C@@H](C)O)[C@@H](C)O)[C@@H](C)O)C(C)C)[C@@H](C)O)C(=O)N[C@@H](CCc1cn(C2CCC(OC3O[C@H](CO[C@H]4O[C@H](CO[C@H]5O[C@H](CO)[C@@H](O)[C@H](O)[C@@H]5O[C@H]5O[C@H](CO)[C@@H](O)[C@H](O)[C@@H]5O)[C@@H](O)[C@H](O[C@H]5O[C@H](CO)[C@@H](O)[C@H](O)[C@@H]5O[C@H]5O[C@H](CO)[C@@H](O)[C@H](O)[C@@H]5O)[C@@H]4O)[C@@H](O)[C@H](O[C@H]4O[C@H](CO)[C@@H](O)[C@H](O)[C@@H]4O[C@H]4O[C@H](CO)[C@@H](O)[C@H](O)[C@@H]4O[C@H]4O[C@H](CO)[C@@H](O)[C@H](O)[C@@H]4O)[C@@H]3O)CC2)nn1)C(=O)N[C@@H](CCCNC(=N)N)C(=O)N[C@@H](CO)C(=O)N[C@H](C(=O)N1CCC[C@H]1C(=O)N[C@@H](Cc1c[nH]c2ccccc12)C(=O)N[C@@H](Cc1ccc(O)cc1)C(=O)N[C@H](C(=O)N[C@@H](Cc1ccc(O)cc1)C(=O)N[C@@H](CCCNC(=N)N)C(=O)N[C@@H](Cc1c[nH]c2ccccc12)C(=O)N[C@@H](CC(C)C)C(=O)N1CCC[C@H]1C(=O)N[C@@H](CC(N)=O)C(=O)NCC(=O)N[C@@H](CO)C(=O)NCC(=O)N[C@@H](CO)C(=O)NCC(=O)N[C@@H](CSC1CC(=O)N(CCC(=O)NCCOCCOCCNC(=O)CCCC[C@@H]2SC[C@@H]3NC(=O)N[C@@H]32)C1=O)C(=O)N[C@@H](C)C(=O)O)[C@@H](C)O)[C@@H](C)CC` (some centres unmarked) [Clone 10V1-C7A, XATKTNAKREKTXDNHVTIXRSIPWYTYRWLPN] gave a Kd of 4.4 nM. `CC[C@H](C)[C@H](NC(=O)[C@@H](NC(=O)[C@@H](NC(=O)[C@H](Cc1c[nH]cn1)NC(=O)[C@H](CC(N)=O)NC(=O)[C@H](CC(=O)O)NC(=O)[C@H](CCc1cn(C2CCC(OC3O[C@H](CO[C@H]4O[C@H](CO[C@H]5O[C@H](CO)[C@@H](O)[C@H](O)[C@@H]5O[C@H]5O[C@H](CO)[C@@H](O)[C@H](O)[C@@H]5O)[C@@H](O)[C@H](O[C@H]5O[C@H](CO)[C@@H](O)[C@H](O)[C@@H]5O[C@H]5O[C@H](CO)[C@@H](O)[C@H](O)[C@@H]5O)[C@@H]4O)[C@@H](O)[C@H](O[C@H]4O[C@H](CO)[C@@H](O)[C@H](O)[C@@H]4O[C@H]4O[C@H](CO)[C@@H](O)[C@H](O)[C@@H]4O[C@H]4O[C@H](CO)[C@@H](O)[C@H](O)[C@@H]4O)[C@@H]3O)CC2)nn1)NC(=O)[C@@H](NC(=O)[C@H](CCCCN)NC(=O)[C@H](CCC(=O)O)NC(=O)[C@H](CCCNC(=N)N)NC(=O)[C@H](CCCCN)NC(=O)[C@H](CO)NC(=O)[C@H](CC(N)=O)NC(=O)[C@@H](NC(=O)[C@H](CCCCN)NC(=O)[C@@H](NC(=O)[C@H](C)NC(=O)[C@H](CCc1cn(C2CCC(OC3O[C@H](CO[C@H]4O[C@H](CO[C@H]5O[C@H](CO)[C@@H](O)[C@H](O)[C@@H]5O[C@H]5O[C@H](CO)[C@@H](O)[C@H](O)[C@@H]5O)[C@@H](O)[C@H](O[C@H]5O[C@H](CO)[C@@H](O)[C@H](O)[C@@H]5O[C@H]5O[C@H](CO)[C@@H](O)[C@H](O)[C@@H]5O)[C@@H]4O)[C@@H](O)[C@H](O[C@H]4O[C@H](CO)[C@@H](O)[C@H](O)[C@@H]4O[C@H]4O[C@H](CO)[C@@H](O)[C@H](O)[C@@H]4O[C@H]4O[C@H](CO)[C@@H](O)[C@H](O)[C@@H]4O)[C@@H]3O)CC2)nn1)NC=O)[C@@H](C)O)[C@@H](C)O)[C@@H](C)O)C(C)C)[C@@H](C)O)C(=O)N[C@@H](CCc1cn(C2CCC(OC3O[C@H](CO[C@H]4O[C@H](CO[C@H]5O[C@H](CO)[C@@H](O)[C@H](O)[C@@H]5O[C@H]5O[C@H](CO)[C@@H](O)[C@H](O)[C@@H]5O)[C@@H](O)[C@H](O[C@H]5O[C@H](CO)[C@@H](O)[C@H](O)[C@@H]5O[C@H]5O[C@H](CO)[C@@H](O)[C@H](O)[C@@H]5O)[C@@H]4O)[C@@H](O)[C@H](O[C@H]4O[C@H](CO)[C@@H](O)[C@H](O)[C@@H]4O[C@H]4O[C@H](CO)[C@@H](O)[C@H](O)[C@@H]4O[C@H]4O[C@H](CO)[C@@H](O)[C@H](O)[C@@H]4O)[C@@H]3O)CC2)nn1)C(=O)N[C@@H](CCCNC(=N)N)C(=O)N[C@@H](CO)C(=O)N[C@H](C(=O)N1CCC[C@H]1C(=O)N[C@@H](Cc1c[nH]c2ccccc12)C(=O)N[C@@H](Cc1ccc(O)cc1)C(=O)N[C@H](C(=O)N[C@@H](Cc1ccc(O)cc1)C(=O)N[C@@H](CCCNC(=N)N)C(=O)N[C@@H](Cc1c[nH]c2ccccc12)C(=O)N[C@@H](CC(C)C)C(=O)N1CCC[C@H]1C(=O)N[C@@H](CC(N)=O)C(=O)NCC(=O)N[C@@H](CO)C(=O)NCC(=O)N[C@@H](CO)C(=O)NCC(=O)N[C@@H](CS)C(=O)N[C@@H](C)C(=O)O)[C@@H](C)O)[C@@H](C)CC` (some centres unmarked) [Clone 10V1-C7S, XATKTNSKREKTXDNHVTIXRSIPWYTYRWLPN] registered a Kd of 5.6 nM.

As usually defined, the Kd is a measure of binding affinity in units of concentration. The low end stands for higher affinity, the high end for lower affinity.
